What follows are compounds tested against human PAD4 (hPAD4) (Homo sapiens (Human), UniProt Q9UM07) (assay: RFMS Human PAD4 Functional Assay 1). Conditions: RFMS assay 1; 5 nM hPAD4, 250 μM BAEE substrate, 50 μM calcium, 37° C.
Format: biochemical
Description: RFMS Human PAD4 Functional Assay 1:
Compounds were solubilized in 100% DMSO to achieve all) mM compound concentration. Compound stock solutions were stored at RT. A series of dilutions were prepared in DMSO and mixed 8 times with 20 μL mixing volume. Final top concentration of compound in the assay is 50 μM. Final assay conditions were as follows: • Reaction volume: 26 μl • Assay buffer: 25 mM hepes, pH 7.5, 5 mM NaCl, 1 mM DTT, 0.2 mg/ml BSA, 0.01% CHAPS, 50 μM Calcium, and 5 μM TPEN • Final concentrations: 5 nM hPAD4 enzyme, 250 μM BASE, and 0.5% DMSO • Total incubation time: 30 mins compound and enzyme preincubation at 37° C., 90 min enzyme/substrate reaction, 30 min reaction with phenyl glyoxal at 37° C. • Stop solution: 40 μl 5% TCA in ACN
0.13 μL of compound solution was added to 13 μL of 10 nM PAD4 in assay buffer. After 30 min 13 μl of 500 μM of BAEE was added in 25 mM hepes, pH 7.5, 5 mM NaCl, 1 mM DTT, 0.2 mg/ml BSA, 0.01% CHAPS, 50 μM Calcium, 5 μM TPEN was added and the reaction incubated for 90 min at 37° C. The enzymatic reaction was quenched by addition of 15 μl of 6.1N TCA, 100% Final Concentration is 20%, 35 μl of 8.5 mM phenyl glyoxal (final concentration 4 mM) is then added and the reaction is incubated for 30 min at 37° C.
After 30 minutes the plates are spun down to remove all precipitate. The enzyme reaction was quenched with an equal volume of methanol containing internal standard (modified citrulline). Samples were loaded onto the Rapid Fire RF300 system (Agilent) wherein they were first sipped for 1000 ms and then directly loaded to a C18 separations cartridge using a mixture of acetonitrile containing 0.01% formic acid for 3000 ms desalting. The flow rate of the mobile phase was 1.5 ml/min. Once the samples were eluted from the cartridge, a mobile phase of acetonitrile containing 0.01% formic acid was used to move the samples into the mass spectrometer for 4000 ms at a flow rate of 1.25 ml/min/Sciex API5500 triple quadrupole mass spectrometer (Applied Biosystems) equipped with ESI was used to analyze the peptidyl citrulline and internal standard ions.
MRM transition of product and internal standard were monitored at m/z 424.5 to 350.4 and m/z 293 to 247 respectively. The dwell time for each transition was set at 200 ms, and the ESI voltage was used at 5500 with a source temperature of 400° C. Extracted ion peaks for each transition were integrated using the Rapid Fire Integrator software. Peak area of analyte was normalized with internal standard.).

Chain of human PAD4 (hPAD4) (Q9UM07 whole entry): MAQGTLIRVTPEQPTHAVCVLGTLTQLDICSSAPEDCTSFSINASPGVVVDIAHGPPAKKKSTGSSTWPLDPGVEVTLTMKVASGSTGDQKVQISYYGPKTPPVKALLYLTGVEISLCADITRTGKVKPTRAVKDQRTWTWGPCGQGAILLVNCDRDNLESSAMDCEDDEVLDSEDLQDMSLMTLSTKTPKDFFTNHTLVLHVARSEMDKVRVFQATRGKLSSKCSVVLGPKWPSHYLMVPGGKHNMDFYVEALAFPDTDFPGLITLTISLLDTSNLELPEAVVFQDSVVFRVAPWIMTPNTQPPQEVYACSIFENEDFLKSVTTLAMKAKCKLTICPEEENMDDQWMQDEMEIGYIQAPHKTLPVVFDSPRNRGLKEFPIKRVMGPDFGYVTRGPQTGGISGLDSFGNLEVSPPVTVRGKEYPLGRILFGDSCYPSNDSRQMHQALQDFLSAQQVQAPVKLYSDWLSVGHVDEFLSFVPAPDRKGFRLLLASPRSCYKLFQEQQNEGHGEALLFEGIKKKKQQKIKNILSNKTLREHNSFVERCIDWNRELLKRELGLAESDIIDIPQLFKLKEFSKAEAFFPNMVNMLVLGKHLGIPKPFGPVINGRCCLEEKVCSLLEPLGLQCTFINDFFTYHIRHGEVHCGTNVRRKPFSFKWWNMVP

With Cc1c(-c2cc3ccc(OCC4CNC(=O)C4)nc3n2CC2CC2)nn2cc(C(=O)N3CC4CCC3[C@@H]4N)cc(F)c12 (mixture of isomers) [Example 275, 4-{[(2-{6-[(7R)-7-Amino-2-azabicyclo[2.2.1]heptane-2-carbonyl]-4-fluoro-3-methylpyrazolo[1,5-a]pyridin-2-yl}-1-(cyclopropylmethyl)-1H-pyrrolo[2,3-b]pyridin-6-yl)oxy]methyl}pyrrolidin-2-one] as the compound, how does the IC50 read?
The IC50 was 0.12 µM.

Which IC50 does the source give for Cc1c(-c2cc3ccc(C(C)(O)C(F)F)nc3n2CC2CC2)nn2cc(C(=O)N3CC4CCC3[C@@H]4N)ccc12 (mixture of isomers) [Example 381, 2-(2-{6-[(7R)-7-Amino-2-azabicyclo[2.2.1]heptane-2-carbonyl]-3-methylpyrazolo[1,5-a]pyridin-2-yl}-1-(cyclopropylmethyl)-1H-pyrrolo[2,3-b]pyridin-6-yl)-1,1-difluoropropan-2-ol] here?
The IC50 was 0.02 µM.

How did the IC50 turn out when Cc1c(-c2cc3ccc(C(C)(O)C(F)(F)F)nc3n2CC2CC2)nn2cc(C(=O)N3CCC[C@@H](N)C3)ccc12 (mixture of isomers) [Example 382, 2-(2-{6-[(3R)-3-Aminopiperidine-1-carbonyl]-3-methylpyrazolo[1,5-a]pyridin-2-yl}-1-(cyclopropylmethyl)-1H-pyrrolo[2,3-b]pyridin-6-yl)-1,1,1-trifluoropropan-2-ol] was run?
The IC50 was 0.15 µM.

With Cc1c(-c2cc3ccc(C(C)O)nc3n2CC2CC2)nn2cc(C(=O)N3CCC[C@@H](N)C3)ccc12 (mixture of isomers) [Example 385, 1-(2-{6-[(3R)-3-Aminopiperidine-1-carbonyl]-3-methylpyrazolo[1,5-a]pyridin-2-yl}-1-(cyclopropylmethyl)-1H-pyrrolo[2,3-b]pyridin-6-yl)ethan-1-ol] as the compound, how does the IC50 read?
The IC50 was 0.27 µM.

Which IC50 does the source give for COc1cc(C(=O)N2CCC[C@@H](N)C2)cn2nc(-c3cc4cccc(C5CCN(C(=O)C6CC(O)(C(F)(F)F)C6)CC5)c4n3CC3CC3)c(C)c12 (mixture of isomers) [Example 398, (R)-(3-Aminopiperidin-1-yl)(2-(1-(cyclopropylmethyl)-7-(1-(3-hydroxy-3-(trifluoromethyl)cyclobutane-1-carbonyl)piperidin-4-yl)-1H-indol-2-yl)-4-methoxy-3-methylpyrazolo[1,5-a]pyridin-6-yl)methanone] here?
Its IC50 is 0.04 µM.

How did the IC50 turn out when COc1cc(C(=O)N2C[C@H](N)C[C@@H](F)C2)cn2nc(-c3cc4cccc(C5CCN(C(=O)C6CC(O)(C(F)(F)F)C6)CC5)c4n3CC3CC3)c(C)c12 (mixture of isomers) [Example 399, ((3R,5R)-3-Amino-5-fluoropiperidin-1-yl)(2-(1-(cyclopropylmethyl)-7-(1-(3-hydroxy-3-(trifluoromethyl)cyclobutane-1-carbonyl)piperidin-4-yl)-1H-indol-2-yl)-4-methoxy-3-methylpyrazolo[1,5-a]pyridin-6-yl)methanone] was run?
The IC50 was 0.05 µM.

COc1cc(C(=O)N2CCC[C@@H](N)C2)cn2nc(-c3cc4cccc(C5CCN(C(=O)C6CCCO6)CC5)c4n3CC3CC3)c(C)c12 (mixture of isomers) [Example 400, ((R)-3-Aminopiperidin-1-yl)(2-(1-(cyclopropylmethyl)-7-(1-(tetrahydrofuran-2-carbonyl)piperidin-4-yl)-1H-indol-2-yl)-4-methoxy-3-methylpyrazolo[1,5-a]pyridin-6-yl)methanone] was tested. Which IC50 did it give?
The IC50 was 0.66 µM.

Cc1c(-c2cc3cccc(C4CCN(C(=O)C5CC(O)C5)CC4)c3n2CC2CC2)nn2cc(C(=O)N3C[C@H](N)C[C@@H](F)C3)cc(F)c12 (mixture of isomers) [Example 419, ((3R,5R)-3-Amino-5-fluoropiperidin-1-yl)(2-(1-(cyclopropylmethyl)-7-(1-(3-hydroxycyclobutane-1-carbonyl)piperidin-4-yl)-1H-indol-2-yl)-4-fluoro-3-methylpyrazolo[1,5-a]pyridin-6-yl)methanone] was tested. Which IC50 did it give?
Its IC50 is 8.25 µM.

How did the IC50 turn out when Cc1c(-c2cc3cccc(C4CCN(C(=O)C5CC(O)C5)CC4)c3n2CC2CC2)nn2cc(C(=O)N3CCC[C@@H](N)C3)cc(F)c12 (mixture of isomers) [Example 420, (R)-(3-Aminopiperidin-1-yl)(2-(1-(cyclopropylmethyl)-7-(1-(3-hydroxycyclobutane-1-carbonyl)piperidin-4-yl)-1H-indol-2-yl)-4-fluoro-3-methylpyrazolo[1,5-a]pyridin-6-yl)methanone] was run?
Its IC50 is 0.29 µM.

For Cc1c(-c2cc3cccc(C4CCN(C(=O)C5CC(O)(C(F)(F)F)C5)CC4)c3n2CC2CC2)nn2cc(C(=O)N3C[C@H](N)C[C@@H](F)C3)cc(F)c12 (mixture of isomers) [Example 421, ((3R,5R)-3-Amino-5-fluoropiperidin-1-yl)(2-(1-(cyclopropylmethyl)-7-(1-(3-hydroxy-3-(trifluoromethyl)cyclobutane-1-carbonyl)piperidin-4-yl)-1H-indol-2-yl)-4-fluoro-3-methylpyrazolo[1,5-a]pyridin-6-yl)methanone], which IC50 is on record?
Its IC50 is 0.08 µM.

Cc1c(-c2cc3cccc(C4CCN(C(=O)C5CC(O)(C(F)(F)F)C5)CC4)c3n2CC2CC2)nn2cc(C(=O)N3CCC[C@@H](N)C3)cc(F)c12 (mixture of isomers) [Example 422, (R)-(3-Aminopiperidin-1-yl)(2-(1-(cyclopropylmethyl)-7-(1-(3-hydroxy-3-(trifluoromethyl)cyclobutane-1-carbonyl)piperidin-4-yl)-1H-indol-2-yl)-4-fluoro-3-methylpyrazolo[1,5-a]pyridin-6-yl)methanone] was tested. Which IC50 did it give?
Its IC50 is 0.4 µM.

How did the IC50 turn out when Cc1c(-c2cc3cccc(C4CCN(C(=O)C5CC(O)(C(F)(F)F)C5)CC4)c3n2CC2CC2)nn2cc(C(=O)N3CCC[C@@H](N)C3)ccc12 (mixture of isomers) [Example 456, (R)-(3-aminopiperidin-1-yl)(2-(1-(cyclopropylmethyl)-7-(1-(3-hydroxy-3-(trifluoromethyl)cyclobutane-1-carbonyl)piperidin-4-yl)-1H-indol-2-yl)-3-methylpyrazolo[1,5-a]pyridin-6-yl)methanone] was run?
The IC50 was 0.03 µM.

Which IC50 does the source give for Cc1c(-c2cc3cccc(C4CCN(C(=O)C5CCCCO5)CC4)c3n2CC2CC2)nn2cc(C(=O)N3C[C@H](N)C[C@@H](F)C3)ccc12 (mixture of isomers) [Example 458] here?
Its IC50 is 0.08 µM.

Cc1c(-c2cc3cccc(C4CCN(C(=O)C5CCCO5)CC4)c3n2CC2CC2)nn2cc(C(=O)N3CCC[C@@H](N)C3)ccc12 (mixture of isomers) [Example 462, ((R)-3-aminopiperidin-1-yl)(2-(1-(cyclopropylmethyl)-7-(1-(tetrahydrofuran-2-carbonyl)piperidin-4-yl)-1H-indol-2-yl)-3-methylpyrazolo[1,5-a]pyridin-6-yl)methanone] was tested. Which IC50 did it give?
The IC50 was 0.03 µM.

For Cc1c(-c2cc3cccc(C4CCN(C(=O)C5CCCO5)CC4)c3n2CC2CC2)nn2cc(C(=O)N3C[C@H](N)C[C@@H](F)C3)ccc12 (mixture of isomers) [Example 463, ((3R,5R)-3-amino-5-fluoropiperidin-1-yl)(2-(1-(cyclopropylmethyl)-7-(1-(tetrahydrofuran-2-carbonyl)piperidin-4-yl)-1H-indol-2-yl)-3-methylpyrazolo[1,5-a]pyridin-6-yl)methanone], which IC50 is on record?
The IC50 was 0.1 µM.

With Cc1c(-c2cc3cccc(C4CCN(C(=O)C5CC(O)C5)CC4)c3n2CC2CC2)nn2cc(C(=O)N3CCC[C@@H](N)C3)ccc12 (mixture of isomers) [Example 465, (R)-(3-aminopiperidin-1-yl)(2-(1-(cyclopropylmethyl)-7-(1-(3-hydroxycyclobutane-1-carbonyl)piperidin-4-yl)-1H-indol-2-yl)-3-methylpyrazolo[1,5-a]pyridin-6-yl)methanone] as the compound, how does the IC50 read?
Its IC50 is 0.13 µM.

Which IC50 does the source give for Cc1c(-c2cc3cccc(C4CCN(C(=O)C5CC(O)C5)CC4)c3n2CC2CC2)nn2cc(C(=O)N3C[C@H](N)C[C@@H](F)C3)ccc12 (mixture of isomers) [Example 466, ((3R,5R)-3-amino-5-fluoropiperidin-1-yl)(2-(1-(cyclopropylmethyl)-7-(1-(3-hydroxycyclobutane-1-carbonyl)piperidin-4-yl)-1H-indol-2-yl)-3-methylpyrazolo[1,5-a]pyridin-6-yl)methanone] here?
The IC50 was 0.19 µM.

Source: US12473304B2, “Heterocyclic PAD4 inhibitors” (BRISTOL-MYERS SQUIBB COMPANY, priority 2020, dated 2025)
